The text below walks through data of ChEMBL document CHEMBL1201862, “PubChem BioAssay data set” (2004).

Targets include Cytochrome P450 2D6 (Homo sapiens, UniProt P10635); Cytochrome P450 3A4 (Homo sapiens, UniProt P08684); Cytochrome P450 2C9 (Homo sapiens, UniProt P11712).
Assay [1] addresses T1, Heat shock factor protein 1 (Mus musculus, UniProt P38532).
T1 sequence (P38532 whole entry): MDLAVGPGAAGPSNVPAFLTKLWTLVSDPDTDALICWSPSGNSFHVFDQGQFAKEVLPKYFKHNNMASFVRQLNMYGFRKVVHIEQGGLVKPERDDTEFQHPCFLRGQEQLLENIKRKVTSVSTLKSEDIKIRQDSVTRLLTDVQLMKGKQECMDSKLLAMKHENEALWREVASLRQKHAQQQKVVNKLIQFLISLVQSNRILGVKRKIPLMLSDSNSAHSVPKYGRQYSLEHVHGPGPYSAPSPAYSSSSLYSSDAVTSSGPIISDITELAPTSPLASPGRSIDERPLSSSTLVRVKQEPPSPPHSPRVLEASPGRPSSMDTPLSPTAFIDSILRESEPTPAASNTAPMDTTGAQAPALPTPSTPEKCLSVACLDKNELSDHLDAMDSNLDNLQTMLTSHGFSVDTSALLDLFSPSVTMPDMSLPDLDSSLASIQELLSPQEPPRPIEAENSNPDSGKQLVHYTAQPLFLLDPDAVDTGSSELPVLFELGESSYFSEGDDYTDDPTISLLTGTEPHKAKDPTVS
Nature of the assay: inhibition of MG132-induced HSE-luciferase signal, confirmation, cell-based, NIH3T3, luminescence, dose retest (AID 2382).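 Note: NIH3T3 fibroblasts with HSF1-driven luciferase reporter stressed by proteasome inhibitor MG132; luminescence from HSF1-driven luciferase expression after 8 hours of MG132 stress.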 Format: functional.

Assay [2] in a line: HEp-2 cell cytotoxicity, dose response, cytotoxicity control for RSV inhibitor project, HTS (AID 2410). Format: functional. Particulars: human respiratory syncytial virus.
Assay [3] is described as follows: inhibitors of intracellular T. cruzi replication, confirmation, NIH3T3 host cells, beta-gal luminescence (AID 2044).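 Note: intracellular parasites grown in NIH/3T3 mouse fibroblasts as host cells; luminescent beta-galactosidase reporter signal from transgenic T. cruzi replicating inside host cells; inhibitors lower the luminescence signal.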 Format: functional, cell-based.
Assay [4] is described as follows: cytotoxicity toward NIH3T3 fibroblasts, dose response, counter-screen, cell-based, ATP luminescence, mouse fibroblasts (AID 2010).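 Note: cells exposed to compound for about 90 hours before reading.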 Type of assay: functional. In general terms: A counterscreen serves to expose hits that act by an unwanted route or on another target.
The target of another assay is Cytochrome P450 2C19 (Homo sapiens, UniProt P33261). In words: Cytochrome panel assay with activity outcomes. Panel member name: p450-cyp2c19 Compounds with AC50 equal or less than 10 uM are considered active. Format: functional. The note with it: read-out: AC50.
The target in the next assay is T2, Cytochrome P450 1A2 (Homo sapiens, UniProt P05177).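 Note: PubChem cytochrome P450 panel assay, CYP1A2 panel member.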
T2 sequence (P05177 whole entry): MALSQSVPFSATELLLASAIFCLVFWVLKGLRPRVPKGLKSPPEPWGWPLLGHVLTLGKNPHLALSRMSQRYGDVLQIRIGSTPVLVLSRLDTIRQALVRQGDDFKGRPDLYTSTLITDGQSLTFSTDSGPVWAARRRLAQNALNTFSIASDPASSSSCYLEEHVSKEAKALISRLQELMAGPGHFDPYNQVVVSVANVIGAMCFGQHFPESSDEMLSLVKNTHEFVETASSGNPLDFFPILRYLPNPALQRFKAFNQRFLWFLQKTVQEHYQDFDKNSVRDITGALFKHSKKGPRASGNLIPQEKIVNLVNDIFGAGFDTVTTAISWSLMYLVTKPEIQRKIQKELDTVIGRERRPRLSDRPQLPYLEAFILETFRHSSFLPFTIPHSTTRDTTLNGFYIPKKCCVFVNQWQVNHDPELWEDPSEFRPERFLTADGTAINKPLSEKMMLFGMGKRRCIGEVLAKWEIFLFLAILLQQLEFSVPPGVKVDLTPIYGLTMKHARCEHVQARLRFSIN

Activity calls are given as the source filed them. Where only a bound is given, the exact number is not on record here.

Sequence of Cytochrome P450 2C9 (P11712 whole entry): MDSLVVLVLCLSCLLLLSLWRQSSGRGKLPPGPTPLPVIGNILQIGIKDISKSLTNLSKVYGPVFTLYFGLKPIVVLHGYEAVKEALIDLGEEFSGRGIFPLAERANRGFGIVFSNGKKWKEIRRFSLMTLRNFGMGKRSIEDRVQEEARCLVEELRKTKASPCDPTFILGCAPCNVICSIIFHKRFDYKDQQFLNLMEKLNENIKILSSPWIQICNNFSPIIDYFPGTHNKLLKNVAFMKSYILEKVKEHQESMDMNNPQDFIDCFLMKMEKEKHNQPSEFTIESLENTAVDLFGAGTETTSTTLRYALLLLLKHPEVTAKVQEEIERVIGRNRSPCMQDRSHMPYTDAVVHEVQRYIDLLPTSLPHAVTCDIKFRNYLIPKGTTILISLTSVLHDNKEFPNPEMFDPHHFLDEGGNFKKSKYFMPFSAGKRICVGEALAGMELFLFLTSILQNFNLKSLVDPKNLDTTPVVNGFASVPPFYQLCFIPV
Sequence of Cytochrome P450 2C19 (P33261 whole entry): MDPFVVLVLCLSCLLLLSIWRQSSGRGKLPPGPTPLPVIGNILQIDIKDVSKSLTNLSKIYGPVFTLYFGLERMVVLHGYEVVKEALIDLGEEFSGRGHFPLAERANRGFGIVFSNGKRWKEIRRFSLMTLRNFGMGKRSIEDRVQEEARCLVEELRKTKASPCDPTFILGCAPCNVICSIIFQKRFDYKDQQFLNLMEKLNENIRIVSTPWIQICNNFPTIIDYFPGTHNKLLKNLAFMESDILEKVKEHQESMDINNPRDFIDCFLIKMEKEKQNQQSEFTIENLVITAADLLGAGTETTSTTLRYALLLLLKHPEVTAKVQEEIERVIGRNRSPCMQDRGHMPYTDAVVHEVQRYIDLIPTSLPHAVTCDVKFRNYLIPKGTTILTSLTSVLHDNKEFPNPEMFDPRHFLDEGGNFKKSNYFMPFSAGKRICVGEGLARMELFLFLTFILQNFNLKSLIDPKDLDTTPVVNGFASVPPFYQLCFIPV
Sequence of Cytochrome P450 2D6 (P10635 whole entry): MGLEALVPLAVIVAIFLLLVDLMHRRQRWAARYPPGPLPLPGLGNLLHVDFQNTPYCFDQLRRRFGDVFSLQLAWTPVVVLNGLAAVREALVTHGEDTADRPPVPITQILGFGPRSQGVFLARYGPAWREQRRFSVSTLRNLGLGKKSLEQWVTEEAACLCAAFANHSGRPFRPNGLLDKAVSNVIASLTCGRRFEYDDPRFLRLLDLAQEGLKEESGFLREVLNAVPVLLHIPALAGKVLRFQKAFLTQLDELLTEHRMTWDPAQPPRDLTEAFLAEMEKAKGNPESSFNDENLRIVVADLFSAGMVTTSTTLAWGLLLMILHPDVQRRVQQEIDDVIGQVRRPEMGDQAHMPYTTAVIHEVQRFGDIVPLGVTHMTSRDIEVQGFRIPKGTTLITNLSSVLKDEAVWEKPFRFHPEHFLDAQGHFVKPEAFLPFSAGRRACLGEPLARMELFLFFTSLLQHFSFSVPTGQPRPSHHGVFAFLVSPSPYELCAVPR
Sequence of Cytochrome P450 3A4 (P08684 whole entry): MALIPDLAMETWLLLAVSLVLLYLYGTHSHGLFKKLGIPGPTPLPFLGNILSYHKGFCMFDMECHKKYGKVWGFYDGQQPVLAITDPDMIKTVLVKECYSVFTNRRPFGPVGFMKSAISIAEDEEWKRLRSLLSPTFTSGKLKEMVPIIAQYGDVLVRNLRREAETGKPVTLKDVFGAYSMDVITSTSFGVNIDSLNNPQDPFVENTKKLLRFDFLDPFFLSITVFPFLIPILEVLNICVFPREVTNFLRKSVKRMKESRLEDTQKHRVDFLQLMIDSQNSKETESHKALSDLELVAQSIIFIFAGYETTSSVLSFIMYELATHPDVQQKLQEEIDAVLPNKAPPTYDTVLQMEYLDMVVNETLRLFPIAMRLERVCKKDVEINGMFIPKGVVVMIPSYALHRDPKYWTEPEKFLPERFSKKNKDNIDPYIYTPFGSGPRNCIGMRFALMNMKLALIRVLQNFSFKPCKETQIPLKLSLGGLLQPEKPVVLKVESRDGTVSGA

`COc1ccc(Nc2nc(N)nc(CSc3n[nH]c(-c4ccccc4)n3)n2)cc1`: the AC50 (as a rule, the concentration at which the activity in the assay is half-maximal) at Cytochrome P450 2D6 is 3.55 µM (inconclusive); at Cytochrome P450 3A4, 3.98 µM (inconclusive); at Cytochrome P450 2C9, 12.6 µM (inconclusive).
Consider `CC(C)(C)c1ccc(OC(=O)c2cccnc2)cc1`, for which, in assay [1], the EC50 (as a rule, the concentration at which the effect is half-maximal) is on record as > 195 µM (not active).
Regarding `O=c1c(-c2ccccc2)nc2cnc(N3CCNCC3)nc2n1-c1ccccc1`, the AC50 on Cytochrome P450 3A4 is 20 µM (inconclusive).
For `CCCCNc1nc2cccnc2s1`, in assay [1], the EC50 is listed as > 195 µM (not active).
For the compound `CCOC(=O)C1CCCN(c2nc3ccccc3nc2C(C#N)C(=O)OCCOC)C1` (centres undefined), the CC50 – broadly, the concentration giving 50% cytotoxicity – in assay [2] was 41.7 µM (active).
For `CCOC(=O)c1c(C)[nH]c(C(=O)N2CCc3cc(OC)c(OC)cc3C2)c1C`, in [2], the CC50 is 34.8 µM (active).
Turning to `O=C(O)c1cccc(NC(=S)N/N=C/c2cccnc2)c1`, the EC50 in assay [1] is listed as > 195 µM (not active).
Turning to `COc1ccc(-c2cc(C(F)(F)F)n3ncc(C(=O)N(C)Cc4ccccc4)c3n2)cc1`, the CC50 in [2] is 32.9 µM (active).
As for `CC1(C)CC(=O)c2cc(OCC(=O)N3CCN(c4ccccc4F)CC3)ccc2O1`, the EC50 in assay [1] is > 195 µM (not active).
For the compound `O=C(O)c1c(Cl)c(Cl)c(Cl)c(Cl)c1C(=O)Nc1ccc2cn[nH]c2c1`, the AC50 at Cytochrome P450 2D6 and at Cytochrome P450 3A4 was 3.98 µM (inconclusive) in each case.
As to `CC1CCCCN1CC(=O)Nc1ccccc1Sc1ccccc1` (centres undefined), the EC50 in assay [1] is > 195 µM (not active).
For the compound `O=C(COC(=O)c1ccccc1SCC(=O)N1CCCC1)NC1CCS(=O)(=O)C1` (centres undefined), the EC50 in assay [1] is given as > 195 µM (not active).
Regarding `CC1CCN(S(=O)(=O)c2ccc(C(=O)Nc3nnc(-c4ccccn4)o3)cc2)CC1`, the EC50 in [1] is 45.5 µM (active).
Turning to `O=C(Nc1ccc(N2CCCC2)c(Cl)c1)c1ccc(Br)o1`, in assay [2], the CC50 was 30.6 µM (active). In addition, the EC50 in assay [3] was 1.63 µM (active); in assay [4] it was > 60 µM (not active).
With `O=C(NCC1CCCO1)c1ccc2c(=O)n(Cc3ccco3)c(SCC(=O)N3CCCC3)nc2c1` (centres undefined), the values for the AC50 at Cytochrome P450 2C19 and on Cytochrome P450 3A4 were 15.8 µM (inconclusive) and 12.6 µM (inconclusive), respectively.
As for `c1ccc(CCNCc2ccco2)nc1`, the AC50 on Cytochrome P450 2D6 was 2.51 µM (inconclusive); on Cytochrome P450 1A2, 6.31 µM (inconclusive).
For `Cc1ccc2nc(-c3ccccc3)c(CN(C)C)c(O)c2c1`, the AC50 is 20 µM (inconclusive) on Cytochrome P450 2C19, 15.8 µM (inconclusive) at Cytochrome P450 1A2 and 12.6 µM (inconclusive) on Cytochrome P450 2C9.
Take `COc1ccc(Oc2ncc3nc(-c4ccc(OC)cc4)c(=O)n(C)c3n2)cc1`: the AC50 at Cytochrome P450 1A2 was 3.16 µM (inconclusive); at Cytochrome P450 3A4, 3.98 µM (inconclusive).
On to `C#CCOC(=O)Nc1ccc(=O)n(Cc2c(Cl)cccc2Cl)c1`, for which the results for the AC50 at Cytochrome P450 2D6 and at Cytochrome P450 1A2 were 20 µM (inconclusive) and 12.6 µM (inconclusive), respectively.
Take `CC(C)c1ccc(NC2(C#N)C(=O)Nc3ccccc32)cc1` (centres undefined): the EC50 in assay [1] is > 195 µM (not active).
Consider `Cc1cc2cc3c(cc2nc1SCC(=O)N1c2ccccc2CC1C)OCO3` (centres undefined), for which the CC50 in [2] was 34 µM (active).
Take `Cc1nc2cnc(Oc3ccccc3)nc2n(CCC#N)c1=O`: the values for the AC50 at Cytochrome P450 1A2 and on Cytochrome P450 3A4 were 20 µM (inconclusive) and 25.1 µM (inconclusive), respectively.
Regarding `O=S(=O)(NC(=Nc1ccc(F)cc1F)c1ccc(Cl)cc1)c1ccccc1`, the AC50 at Cytochrome P450 3A4 was 2.82 µM (inconclusive).
Take `CCOc1ccc(N2CSC(=S)N(c3ccc(OCC)cc3)C2)cc1`: the EC50 in assay [1] is recorded as > 195 µM (not active).
As to `Cc1ccc2nc(NC(=O)c3ccc(NS(=O)(=O)c4cccs4)cc3)sc2c1`, the 50% cytotoxic concentration (CC50) in assay [2] is 25.1 µM (active).
On the same count and under the same terms, for `O=C(Nc1ccc(-c2csc(Nc3ccccc3)n2)cc1)c1cc([N+](=O)[O-])cc(C(F)(F)F)c1` the value was 14.6 µM (active).
In the case of `Cc1c([C@@H](C)[C@H]2NC[C@H](C)C[C@@H]2O)ccc2c1C[C@@H]1[C@H]2CC=C2C[C@@H](O)CC[C@@]21C`, the concentration at half-maximal activity (AC50) on Cytochrome P450 3A4 is 3.16 µM (inconclusive).
In the case of `CNc1oc(-c2ccc(Cl)cc2)nc1C#N`, the AC50 at Cytochrome P450 2D6 was 22.4 µM (inconclusive); on Cytochrome P450 3A4, 14.1 µM (inconclusive); on Cytochrome P450 2C9, 8.91 µM (inconclusive).
For `COc1ccc(CN2/C(=N/C(=O)CCC3CCCC3)SC3CS(=O)(=O)CC32)cc1` (centres undefined), the EC50 in assay [1] is > 195 µM (not active).
For `COC(=O)CCC(=O)Nc1cccc(C(=O)Nc2cccc(Cl)c2)c1`, the half-maximal activity concentration (AC50) is 22.4 µM (inconclusive) at Cytochrome P450 2D6 and 0.398 µM (inconclusive) at Cytochrome P450 3A4.
Consider `O=C(Cc1ccccc1)N/N=C/c1cc(Br)c(Br)o1`, for which, on Cytochrome P450 3A4, the AC50 is 28.2 µM (inconclusive).
Take `Ic1ccccc1CN[C@@H]1C2CCN(CC2)[C@H]1C(c1ccccc1)c1ccccc1`: the values for the AC50 on Cytochrome P450 1A2 and on Cytochrome P450 3A4 were 12.6 µM (inconclusive) and 20 µM (inconclusive), respectively.
Turning to `CCc1nc2ccc(C(=O)O)cc2nc1CC`, the EC50 in [1] is 6.93 µM (active).
For `C[n+]1c(/C=C/c2ccc(O)c3ncccc23)[se]c2ccccc21`, the AC50 was 3.98 µM (inconclusive) at Cytochrome P450 2C19, 3.98 µM (inconclusive) at Cytochrome P450 3A4 and 6.31 µM (inconclusive) at Cytochrome P450 2C9.
For `COc1ccc(C(=O)C(OC(=O)CNC(=O)c2ccco2)c2ccccc2)cc1` (centres undefined), the AC50 was 35.5 µM (inconclusive) on Cytochrome P450 2D6 and 31.6 µM (inconclusive) on Cytochrome P450 1A2.
`O=C(COC(=O)C1=COCCO1)Nc1ccc2c(c1)OCO2`: the EC50 in assay [1] is > 195 µM (not active).
As for `O=C(Nc1ccc(/C=C/c2nc3ccccc3o2)cc1)c1c(F)cccc1F`, the CC50 in [2] is > 50 µM (active).
For `O=C(O)/C=C/c1cn(-c2ncc(C(F)(F)F)cc2Cl)c2ccccc12`, the AC50 on Cytochrome P450 2C19 was 14.1 µM (inconclusive); on Cytochrome P450 1A2 it was 35.5 µM (inconclusive); on Cytochrome P450 2C9, 17.8 µM (inconclusive).
`C=CC/N=C1\S/C(=C\c2ccc(Cl)cc2)C(=O)N1CC=C`: in [2], the CC50 is 44.3 µM (active).
`CC(=O)C1C(=O)c2c(cccc2[N+](=O)[O-])/C1=N\c1ccc(S(N)(=O)=O)cc1` (centres undefined): the EC50 in assay [1] was > 195 µM (not active).
Regarding `Cc1nc2ccccc2c(=O)n1NC(=O)c1ccccc1Cl`, the AC50 at Cytochrome P450 1A2 was 15.8 µM (inconclusive); on Cytochrome P450 3A4 it was 22.4 µM (inconclusive).
In the case of `Cc1cccc(-c2nnc(NC(=O)c3cccs3)s2)c1`, in [1], the EC50 is given as > 195 µM (not active).
`CCN(CC)C(=O)COC(=O)c1ccc(C)c(NC(=O)c2ccco2)c1`: the EC50 in [1] is > 195 µM (not active).
As for `C1CCC(Nc2nnnn2C2CCCCC2)CC1`, the EC50 in assay [1] is on record as > 195 µM (not active).
With `CN(C)S(=O)(=O)c1ccc(C(=O)OCCCNC2=NS(=O)(=O)c3ccccc32)cc1`, the EC50 in [1] was 26 µM (active).
Take `Cc1ccc(-c2ccc(=O)n(CC(=O)N3CCN(c4cccc(C)c4)C(C)C3)n2)cc1` (centres undefined): the AC50 on Cytochrome P450 2D6 was 28.2 µM (inconclusive); at Cytochrome P450 1A2, 20 µM (inconclusive); at Cytochrome P450 2C9 it was 20 µM (inconclusive).
As for `CCCNC(=O)OC[C@@H]1O[C@H](CCO/N=C\c2ccc(C(=O)N3[C@H](c4ccc(C)cc4)[C@@H](C)CC[C@H]3C(=O)OC)cc2)C=C[C@@H]1Oc1ccc(OC)cc1`, the figures for the AC50 at Cytochrome P450 2C19 and at Cytochrome P450 3A4 were 1.26 µM (inconclusive) and 3.16 µM (inconclusive), respectively.
The corresponding values for `Cc1ccc(C)c(C(=O)CN2C3=NCCCN3c3ccccc32)c1` are 39.8 µM (inconclusive) and 12.6 µM (inconclusive).
